This note sets out measurements from US12478617B2, “Lipidated peptide inhibitors of interleukin-23 receptor” (JANSSEN BIOTECH, INC., priority 2021, dated 2025).

The test concerns the target T1, IL-23R (Homo sapiens, UniProt Q5VWK5).
T1 construct: HEK293 cells containing IL-23R, IL-12RP31 and a firefly luciferase reporter gene driven by a STAT-inducible promoter (Promega); host or cells: HEK293
T1 sequence (Q5VWK5 24-629): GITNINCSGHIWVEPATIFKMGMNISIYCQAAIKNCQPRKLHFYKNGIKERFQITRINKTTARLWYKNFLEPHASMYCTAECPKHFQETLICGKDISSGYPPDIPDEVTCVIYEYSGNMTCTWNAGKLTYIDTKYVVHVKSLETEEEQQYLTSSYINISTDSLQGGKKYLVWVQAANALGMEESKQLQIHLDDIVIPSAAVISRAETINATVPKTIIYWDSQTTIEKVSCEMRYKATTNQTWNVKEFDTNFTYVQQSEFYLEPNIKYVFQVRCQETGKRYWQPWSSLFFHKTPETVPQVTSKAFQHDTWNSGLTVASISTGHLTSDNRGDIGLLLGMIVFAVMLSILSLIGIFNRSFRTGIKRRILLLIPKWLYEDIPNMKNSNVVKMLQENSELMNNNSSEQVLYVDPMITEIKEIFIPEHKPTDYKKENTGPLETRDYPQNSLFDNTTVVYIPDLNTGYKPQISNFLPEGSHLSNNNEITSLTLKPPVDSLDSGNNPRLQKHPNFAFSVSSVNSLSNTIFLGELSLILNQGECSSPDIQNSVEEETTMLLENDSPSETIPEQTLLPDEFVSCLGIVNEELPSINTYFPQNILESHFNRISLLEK
Put plainly: IL23R Reporter Assay. The test is classed as cell-based. From the text: IL-23 binding to IL-23 receptors results in the activation of the Signal Transducer and Activator of Transcription 3 (STAT3) by phosphorylation and downstream signaling events. Accordingly. the ability of the inhibitors described herein to block IL-23 action can be assessed by monitoring the status of STAT3 activation in response to IL-23. This may be accomplished in reporter cell assays or in intact cells such as peripheral blood mononuclear cells (PBMCs).
Compounds were serially diluted in 100% (v/v) DMSO) and plated using an Echo acoustic dispenser (Labcyte) into 1536-well non-treated black assay plates (Corning #9146). […] After 5 h at 37° C., 5% CO2, 95% relative humidity, cells were placed at 20° C. and treated with BioGlo reagent (Promega) according to the Manufacturer's instructions. Luminescence was measured on a Pherastar FSX (BMG LabTech).
A general note: A reporter such as luciferase makes a cellular process visible.

Starred links: 1 amine or outer side, 2 acyl side, 3 side chain; linkers in the order of their positions; H or OH if unused. Positions of bridges follow the written chain, without caps; N, C: chain ends. Non-standard residues stand in square brackets, D forms with d. Residues, ends and D or L forms follow the SMILES beside them. Groups on a side chain read outwards from the residue. *: point of attachment. εLys(α-Octadecanedioyl) = O=C(O)CCCCCCCCCCCCCCCCC(=O)N[C@@H](CCCCN*)C(=O)O; Trp(7-Me) = Cc1cccc2c(C[C@H](N)C(=O)O)c[nH]c12; d(γGlu) = O=C(O)[C@@H](CCC(=O)[*:2])N[*:1]; C18 diacid = O=C(O)CCCCCCCCCCCCCCCCC(=O)*; γGlu = O=C(O)[C@H](CCC(=O)[*:2])N[*:1]; 2Nal = N[C@@H](Cc1ccc2ccccc2c1)C(=O)O; AEF = NCCOc1ccc(C[C@H](N)C(=O)O)cc1; PEG6 = NCCOCCOCCOCCOCCOCCOCCC(=O)O; 3Pal = N[C@@H](Cc1cccnc1)C(=O)O; NMeK = CN[C@@H](CCCCN)C(=O)O; Pen = CC(C)(S)[C@H](N)C(=O)O; Thp = NC1(C(=O)O)CCOCC1; AEEA = NCCOCCOCC(=O)O; Sar = CNCC(=O)O

For orientation: IC50 means the concentration at which inhibition is half-maximal. Lower therefore signals greater potency. As for `CC(=O)NCCCC[C@@H]1NC(=O)[C@H](Cc2c[nH]c3c(C)cccc23)NC(=O)[C@H]([C@@H](C)O)NC(=O)[C@H](CC(N)=O)NC(=O)[C@@H](NC(C)=O)C(C)(C)SSC(C)(C)[C@@H](C(=O)N[C@@H](Cc2ccc(OCCN)cc2)C(=O)N[C@@H](Cc2ccc3ccccc3c2)C(=O)NC2(C(=O)N[C@@H](CCCCNC(=O)CCOCCOCCOCCOCCOCCOCCNC(=O)CCOCCOCCOCCOCCOCCOCCNC(=O)CC[C@H](NC(=O)CCCCCCCCCCCCCCCCC(=O)O)C(=O)O)C(=O)N[C@@H](CC(N)=O)C(=O)N[C@@H](Cc3cccnc3)C(=O)N(C)CC(N)=O)CCOCC2)NC1=O` [Example 43, MeCO-Pen*-N-T-7MeW-K(Ac)-Pen*-AEF-2Nal-THP-K(PEG6PEG6gEC18OH)-N-3Pya-Sar-CONH2] (Ac-[Pen]NT[Trp(7-Me)]K(Ac)[Pen][AEF][2Nal][Thp]K([PEG6-PEG6-γGlu-C18 diacid])N[3Pal][Sar]-NH2; disulfide 1-6), the 50% inhibitory concentration (IC50) is 0.049 nM.
Next, `CC(=O)NCCCC[C@@H]1NC(=O)[C@H](Cc2c[nH]c3c(C)cccc23)NC(=O)[C@H]([C@@H](C)O)NC(=O)[C@H](CC(N)=O)NC(=O)[C@@H](NC(C)=O)C(C)(C)SSC(C)(C)[C@@H](C(=O)N[C@@H](Cc2ccc(OCCN)cc2)C(=O)N[C@@H](Cc2ccc3ccccc3c2)C(=O)NC2(C(=O)N[C@@H](CCCCNC(C)=O)C(=O)N[C@@H](CC(N)=O)C(=O)N[C@@H](Cc3cccnc3)C(=O)N(C)CC(=O)NCCOCCOCC(=O)NCCOCCOCC(=O)NCCCC[C@H](NC(=O)CCCCCCCCCCCCCCCCC(=O)O)C(=O)O)CCOCC2)NC1=O` [Example 46, MeCO-Pen*-N-T-7MeW-K(Ac)-Pen*-AEF-2Nal-THP-K(Ac)-N-3Pya-Sar-PEG2PEG2eKC18OH-COOH] (Ac-[Pen]NT[Trp(7-Me)]K(Ac)[Pen][AEF][2Nal][Thp]K(Ac)N[3Pal][Sar][AEEA][AEEA]-{εLys(α-Octadecanedioyl)}; disulfide 1-6): 0.26 nM; `CC(=O)NCCCC[C@@H]1NC(=O)[C@H](Cc2c[nH]c3c(C)cccc23)NC(=O)[C@H]([C@@H](C)O)NC(=O)[C@H](CCCCNC(=O)COCCOCCNC(=O)COCCOCCNC(=O)CC[C@H](NC(=O)CCCCCCCCCCCCCCCCC(=O)O)C(=O)O)NC(=O)[C@@H](NC(=O)[C@@H](CCCNC(=N)N)NC(C)=O)C(C)(C)SSC(C)(C)[C@@H](C(=O)N[C@@H](Cc2ccc(OCCN)cc2)C(=O)N[C@@H](Cc2ccc3ccccc3c2)C(=O)NC2(C(=O)N[C@@H](CCCCNC(C)=O)C(=O)N[C@@H](CC(N)=O)C(=O)N[C@@H](Cc3cccnc3)C(=O)N(C)CC(N)=O)CCOCC2)NC1=O` [Example 50, MeCO-r-Pen*-K(PEG2PEG2gEC18OH)-T-7MeW-K(Ac)-Pen*-AEF-2Nal-THP-K(Ac)-N-3Pya-Sar-CONH2] (Ac-[dR][Pen]K([AEEA-AEEA-γGlu-C18 diacid])T[Trp(7-Me)]K(Ac)[Pen][AEF][2Nal][Thp]K(Ac)N[3Pal][Sar]-NH2; disulfide 2-7): 0.1 nM; `CC(=O)NCCCC[C@@H]1NC(=O)[C@H](Cc2c[nH]c3c(C)cccc23)NC(=O)[C@H]([C@@H](C)O)NC(=O)[C@H](CCCCNC(=O)COCCOCCNC(=O)CC[C@H](NC(=O)CCCCCCCCCCCCCCCCC(=O)O)C(=O)O)NC(=O)[C@@H](NC(=O)[C@@H](CCCNC(=N)N)NC(C)=O)C(C)(C)SSC(C)(C)[C@@H](C(=O)N[C@@H](Cc2ccc(OCCN)cc2)C(=O)N[C@@H](Cc2ccc3ccccc3c2)C(=O)NC2(C(=O)N[C@@H](CCCCNC(C)=O)C(=O)N[C@@H](CC(N)=O)C(=O)N[C@@H](Cc3cccnc3)C(=O)N(C)CC(N)=O)CCOCC2)NC1=O` [Example 52, MeCO-r-Pen*-K(PEG2gE C18OH)-T-7MeW-K(Ac)-Pen*-AEF-2Nal-THP-K(Ac)-N-3Pya-Sar-CONH2] (Ac-[dR][Pen]K([AEEA-γGlu-C18 diacid])T[Trp(7-Me)]K(Ac)[Pen][AEF][2Nal][Thp]K(Ac)N[3Pal][Sar]-NH2; disulfide 2-7): 0.15 nM.
In turn, `CC(=O)NCCCC[C@@H]1NC(=O)[C@H](Cc2c[nH]c3c(C)cccc23)NC(=O)[C@H]([C@@H](C)O)NC(=O)[C@H](CC(N)=O)NC(=O)[C@@H](NC(=O)[C@@H](CCCNC(=N)N)NC(C)=O)C(C)(C)SSC(C)(C)[C@@H](C(=O)N[C@@H](Cc2ccc(OCCN)cc2)C(=O)N[C@@H](Cc2ccc3ccccc3c2)C(=O)NC2(C(=O)N[C@@H](CCCCNC(C)=O)C(=O)N[C@@H](CC(N)=O)C(=O)N[C@@H](Cc3cccnc3)C(=O)N(C)[C@@H](CCCCNC(=O)COCCOCCNC(=O)COCCOCCNC(=O)CC[C@H](NC(=O)CCCCCCCCCCCCCCCCC(=O)O)C(=O)O)C(N)=O)CCOCC2)NC1=O` [Example 54, MeCO-r-Pen*-N-T-7MeW-K(Ac)-Pen*-AEF-2Nal-THP-K(Ac)-N-3Pya-NMeK(PEG2PEG2gEC18OH)-CONH2] (Ac-[dR][Pen]NT[Trp(7-Me)]K(Ac)[Pen][AEF][2Nal][Thp]K(Ac)N[3Pal][NMeK]([AEEA-AEEA-γGlu-C18 diacid])-NH2; disulfide 2-7) had a half-inhibitory concentration (IC50) of 0.13 nM.
As to `CC(=O)NCCCC[C@@H]1NC(=O)[C@H](Cc2c[nH]c3c(C)cccc23)NC(=O)[C@H]([C@@H](C)O)NC(=O)[C@H](CC(N)=O)NC(=O)[C@@H](NC(=O)[C@@H](CCCNC(=N)N)NC(C)=O)C(C)(C)SSC(C)(C)[C@@H](C(=O)N[C@@H](Cc2ccc(OCCN)cc2)C(=O)N[C@@H](Cc2ccc3ccccc3c2)C(=O)NC2(C(=O)N[C@@H](CCCCNC(=O)COCCOCCNC(=O)COCCOCCNC(=O)CC[C@@H](NC(=O)CCCCCCCCCCCCCCCCC(=O)O)C(=O)O)C(=O)N[C@@H](CC(N)=O)C(=O)N[C@@H](Cc3cccnc3)C(=O)N(C)CC(N)=O)CCOCC2)NC1=O` [Example 55, MeCO-r-Pen*-N-T-7MeW-K(Ac)-Pen*-AEF-2Nal-THP-K(PEG2PEG2DgEC18OH)-N-3Pya-Sar-CONH2] (Ac-[dR][Pen]NT[Trp(7-Me)]K(Ac)[Pen][AEF][2Nal][Thp]K([AEEA-AEEA-d(γGlu)-C18 diacid])N[3Pal][Sar]-NH2; disulfide 2-7), the IC50 turned out to be 0.13 nM.
Next, `CC(=O)NCCCC[C@@H]1NC(=O)[C@H](Cc2c[nH]c3c(C)cccc23)NC(=O)[C@H]([C@@H](C)O)NC(=O)[C@H](CC(N)=O)NC(=O)[C@@H](NC(=O)[C@@H](CCCNC(=N)N)NC(C)=O)C(C)(C)SSC(C)(C)[C@@H](C(=O)N[C@@H](Cc2ccc(OCCN)cc2)C(=O)N[C@@H](Cc2ccc3ccccc3c2)C(=O)NC2(C(=O)N[C@@H](CCCCNC(=O)COCCOCCNC(=O)COCCOCCNC(=O)[C@H]3CCCN3C(=O)CCCCCCCCCCCCCCCCC(=O)O)C(=O)N[C@@H](CC(N)=O)C(=O)N[C@@H](Cc3cccnc3)C(=O)N(C)CC(N)=O)CCOCC2)NC1=O` [Example 57, MeCO-r-Pen*-N-T-7MeW-K(Ac)-Pen*-AEF-2Nal-THP-K(PEG2PEG2pC18OH)-N-3Pya-Sar-CONH2] (Ac-[dR][Pen]NT[Trp(7-Me)]K(Ac)[Pen][AEF][2Nal][Thp]K([AEEA-AEEA-dP-C18 diacid])N[3Pal][Sar]-NH2; disulfide 2-7): 0.3 nM.
Next, `CC(=O)NCCCC[C@@H]1NC(=O)[C@H](Cc2c[nH]c3c(C)cccc23)NC(=O)[C@H]([C@@H](C)O)NC(=O)[C@H](CC(N)=O)NC(=O)[C@@H](NC(=O)[C@@H](CCCCNC(=O)CCOCCOCCOCCOCCOCCOCCNC(=O)CC[C@H](NC(=O)CCCCCCCCCCCCCCCCC(=O)O)C(=O)O)NC(C)=O)C(C)(C)SSC(C)(C)[C@@H](C(=O)N[C@@H](Cc2ccc(OCCN)cc2)C(=O)N[C@@H](Cc2ccc3ccccc3c2)C(=O)NC2(C(=O)N[C@@H](CCCCNC(C)=O)C(=O)N[C@@H](CC(N)=O)C(=O)N[C@@H](Cc3cccnc3)C(=O)N(C)CC(N)=O)CCOCC2)NC1=O` [Example 60, MeCO-k(PEG6 gE C18OH)-Pen*-N-T-7MeW-K(Ac)-Pen*-AEF-2Nal-THP-K(Ac)-N-3Pya-Sar-CONH2] (Ac-[dK]([PEG6-γGlu-C18 diacid])[Pen]NT[Trp(7-Me)]K(Ac)[Pen][AEF][2Nal][Thp]K(Ac)N[3Pal][Sar]-NH2; disulfide 2-7): 0.042 nM; `CC(=O)NCCCC[C@@H]1NC(=O)[C@H](Cc2c[nH]c3c(C)cccc23)NC(=O)[C@H]([C@@H](C)O)NC(=O)[C@H](CCCCNC(=O)CCOCCOCCOCCOCCOCCOCCNC(=O)CC[C@H](NC(=O)CCCCCCCCCCCCCCCCC(=O)O)C(=O)O)NC(=O)[C@@H](NC(=O)[C@@H](CCCNC(=N)N)NC(C)=O)C(C)(C)SSC(C)(C)[C@@H](C(=O)N[C@@H](Cc2ccc(OCCN)cc2)C(=O)N[C@@H](Cc2ccc3ccccc3c2)C(=O)NC2(C(=O)N[C@@H](CCCCNC(C)=O)C(=O)N[C@@H](CC(N)=O)C(=O)N[C@@H](Cc3cccnc3)C(=O)N(C)CC(N)=O)CCOCC2)NC1=O` [Example 63, MeCO-r-Pen*-K(PEG6gEC18OH)-T-7MeW-K(Ac)-Pen*-AEF-2Nal-THP-K(Ac)-N-3Pya-Sar-CONH2] (Ac-[dR][Pen]K([PEG6-γGlu-C18 diacid])T[Trp(7-Me)]K(Ac)[Pen][AEF][2Nal][Thp]K(Ac)N[3Pal][Sar]-NH2; disulfide 2-7): 0.13 nM.
